US12558345B2, “CHK1/2 inhibitors for use in the treatment of neuroblastomas and/or soft tissue sarcomas” (Eli Lilly and Company, priority 2015, dated 2026)
Structures can show the parent of a compound that is named as a salt.

How the values were obtained:
[1] = test system: Calu-6 lung xenograft; assay: Single Agent Efficacy Dosing, Calu-6 xenograft; assay type: in vivo, mouse; details: Calu-6, 15 mg/kg SC, BID×5 rest 2 days ×3 cycles
Experimental: The ability of CHK1 inhibitors to effect tumor killing can be determined in vivo using the Calu-6 lung xenograft efficacy model. Calu-6 lung cancer cells (ATCC) are cultured as described above. Cells are harvested and washed twice with phosphate buffered saline and 1×10^6 cells (Calu-6) in growth media (without serum) are mixed with equal volume of BD Matrigel™ matrix (BD Bioscience, Franklin, NJ), then injected subcutaneously into the flank of nude mice (CD-1 nu/nu, from Charles River Labs, Wilmington, MA).

[2] = test system: HT-29 colon tumor xenograft; assay: Human Tumor Xenograft Models, with gemcitabine: HT-29; assay type: in vivo, mouse
Experimental: (§1) The ability of CHK1 inhibitors to effect tumor killing can be determined in vivo using the Calu-6 lung and HT-29 colon tumor xenograft efficacy models. Calu-6 lung cancer cells (ATCC) are cultured in growth media (MEM w/ Earle's salts (Invitrogen) with L-glutamine (Gibco™) supplemented with 10% (v/v) heat inactivated FBS (Gibco™), 1×MEM non-essential amino acids (Gibco™), 1×sodium pyruvate (Gibco™)) and HT-29 colon cancer cells (ATCC) are cultured in growth media, (McCoy's 5A medium (Gibco™) supplemented with 10% FBS (Gibco™)) and expanded. Cells are harvested and washed twice with phosphate buffered saline and 5×10^6 cells (HT-29) or 1×10^6 cells (Calu-6) in growth media (without serum) are mixed with equal volume of BD Matrigel™ matrix (BD Bioscience, Franklin, NJ), then injected subcutaneously into the flank of nude mice (CD-1 nu/nu, from Charles River Labs, Wilmington, MA). At about day 16 after implant (150-200 mm^3), gemcitabine is formulated fresh in saline daily and administered to animals by intraperitoneal route at 60 mg/kg dose. […] Tumor response is determined by tumor volume measurement performed twice a week during the course of treatment. Tumor growth inhibition (TGI) is calculated as the percent reduction in mean tumor size of a compound treated group from the mean tumor size of the vehicle-treated control group.

[3] = test system: Calu-6 lung tumor xenograft; assay: Human Tumor Xenograft Models, with gemcitabine: Calu-6; assay type: in vivo, mouse
Experimental: as §1

[4] = test system: CTG-0241 OS patient-derived xenograft; assay: Xenograft Tumor Model CTG-0241; assay type: in vivo, mouse; details: comparator day 28, p-value 0.019
Experimental: (§2) The efficacy of 5-(5-(2-(3-aminopropoxy)-6-methoxyphenyl)-1H-pyrazol-3-ylamino)pyrazine-2-carbonitrile methanesulfonic acid monohydrate is measurable in vivo in mouse models of neuroblastomas and human pediatric and adult sarcomas. 5-(5-(2-(3-Aminopropoxy)-6-methoxyphenyl)-1H-pyrazol-3-ylamino)pyrazine-2-carbonitrile methanesulfonic acid monohydrate (10 mg/kg) can be administered subcutaneously to nude mice bearing either cell-derived xenografts (CDX) or patient-derived xenografts (PDX) of human rhabdomyosarcoma, desmoplastic small round cell tumor (DSRCT), osteosarcoma, and Ewing's sarcoma using a 3 day on, 4 day off b.i.d. dosing schedule. Tumor volume and body weight can be measured two times per week. Tumor-specific parameters can be evaluated by immumohistochemistry. […]
(§3) For all “ST” models (encompassing RMS and LMS), patient-derived xenografts are established from viable human tumor tissue and are serially passaged in animals a limited number of times to maintain tumor heterogeneity. […] Tumor response is determined by tumor volume measurement performed twice per week during the course of treatment.

[5] = test system: ST240 LMS patient-derived xenograft; assay: Xenograft Tumor Model ST240; assay type: in vivo, mouse; details: comparator day 29, p-value 0.022
Experimental: (§4) For all “ST” models (encompassing RMS and LMS), patient-derived xenografts are established from viable human tumor tissue and are serially passaged in animals a limited number of times to maintain tumor heterogeneity. In subcutaneous models, athymic nude mice (Crl:NU(NCr)-Foxn1nu) or CB-17 SCID mice (CRL-CB17/Icr-Prkdcscid/IcrIcoCrl) are injected or implanted unilaterally into the flank with tumor fragments harvested from host animals, each implanted from a specific passage lot. For all studies, measure tumor growth and body weight twice per week beginning on the seventh day after implantation. When tumor size reaches 150-300 mm^3, randomize animals and group into groups of 4-7 animals. Prepare test compound in an appropriate vehicle (e.g. vehicle can be 20% Captisol® in sterile water) and administer subcutaneously for three consecutive days followed by a four day dosing holiday and repeat for a minimum of four weeks. Tumor response is determined by tumor volume measurement performed twice per week during the course of treatment.

[6] = test system: SJCRH-30 human RMS cancer cell xenograft; assay: Xenograft Tumor Model SJCRH-30; assay type: in vivo, mouse
Experimental: (§5) The efficacy of 5-(5-(2-(3-aminopropoxy)-6-methoxyphenyl)-1H-pyrazol-3-ylamino)pyrazine-2-carbonitrile methanesulfonic acid monohydrate is measurable in vivo in mouse models of neuroblastomas and human pediatric and adult sarcomas. 5-(5-(2-(3-Aminopropoxy)-6-methoxyphenyl)-1H-pyrazol-3-ylamino)pyrazine-2-carbonitrile methanesulfonic acid monohydrate (10 mg/kg) can be administered subcutaneously to nude mice bearing either cell-derived xenografts (CDX) or patient-derived xenografts (PDX) of human rhabdomyosarcoma, desmoplastic small round cell tumor (DSRCT), osteosarcoma, and Ewing's sarcoma using a 3 day on, 4 day off b.i.d. dosing schedule. Tumor volume and body weight can be measured two times per week. Tumor-specific parameters can be evaluated by immumohistochemistry.
Expand human RMS cancer cells SJCRH-30 (St. Jude Children's Research Hospital) in culture, harvest, and inject 5×10^6 cells in 200 μL of HBSS subcutaneously into the right rear flank of female athymic nude mice (20-22 g, Harlan Laboratories). Expand human rhabdomyosarcoma cancer cells RD (ATCC, #CCL-136) in culture, harvest, and inject, 5×10^6 cells in 200 μL of HBSS subcutaneously into the right rear flank of female athymic nude mice (20-22 g, Harlan Laboratories).
as §4

[7] = test system: Osteosarcoma xenograft models; assay: Sarcoma xenograft models by tumor subtype: Osteosarcoma; assay type: in vivo, mouse; details: age of patients 11-19 years
Experimental: as §2, §3

[8] = test system: adult sarcoma models; assay: Adult sarcoma models evaluated in vivo (panel); set-up: species or system mouse
Source text: For all “CTG” models (encompassing human RMS, DSRCT, EWS, OS and LMS patient-derived xenograft models), female NCr nude spontaneous mutant mice (5-8 weeks old, Taconic) are implanted unilaterally in the flank region with tumor fragments harvested from donor animals, each implanted from a specific passage lot.
as §4

[9] = test system: ST550 LMS patient-derived xenograft; assay: Xenograft Tumor Model ST550; assay type: in vivo, mouse; details: comparator day 31, p-value 0.712
Experimental: as §4

[10] = test system: CTG-1213 RMS patient-derived xenograft; assay: Xenograft Tumor Model CTG-1213; assay type: in vivo, mouse
Experimental: as §2, §3

[11] = test system: CTG-0816 EWS patient-derived xenograft; assay: Xenograft Tumor Model CTG-0816; assay type: in vivo, mouse; details: comparator day 28, p-value 0.069
Experimental: as §2, §3

[12] = test system: Liposarcoma xenograft models; assay: Sarcoma xenograft models by tumor subtype: Liposarcoma; assay type: in vivo, mouse; details: age of patients 36-74 years
[13] = test system: CTG-0242 OS patient-derived xenograft; assay: Xenograft Tumor Model CTG-0242; assay type: in vivo, mouse; details: comparator day 28, p-value 0.012
Experimental: as §2, §3

[14] = test system: Embryonal Rhabdomyosarcoma xenograft models; assay: Sarcoma xenograft models by tumor subtype: Embryonal Rhabdomyosarcoma; assay type: in vivo, mouse; details: age of patients 2-7 years
Experimental: as §5
Expand human RMS cancer cells SJCRH-30 (St. Jude Children's Research Hospital) in culture, harvest, and inject 5×10^6 cells in 200 μL of HBSS subcutaneously into the right rear flank of female athymic nude mice (20-22 g, Harlan Laboratories). […]
as §3

[15] = test system: ST0001 LMS patient-derived xenograft; assay: Xenograft Tumor Model ST0001; assay type: in vivo, mouse; details: comparator day 19, p-value 0.247
Experimental: as §4

**Q.** How did the “growth inhibition compared with gemcitabine plus compound combination schedule” value [1] turn out when `COc1cccc(OCCCN)c1-c1cc(Nc2cnc(C#N)cn2)n[nH]1` [Example 2, 5-(5-(2-(3-Aminopropoxy)-6-methoxyphenyl)-1H-pyrazol-3-ylamino)pyrazine-2-carbonitrile dihydrogen chloride salt] was run?
**A.** Its value is “superior growth inhibition”.

**Q.** What about the tumor regression [1] of the same compound?
**A.** The tumor regression was “Complete tumor regression is rapid and durable”.

**Q.** What about the “increase in tumor growth inhibition over gemcitabine alone” value ([2]; HT-29, combination with gemcitabine) of the same compound?
**A.** The value was “up to a six-fold increase”.

**Q.** What about the anti-tumor activity ([2]; HT-29, dosed alone and in combination with gemcitabine 60 mg/kg ip, compound iv +24 hours, Q3Dx4) of the same compound?
**A.** Its anti-tumor activity is “excellent dose dependent anti-tumor activity”.

**Q.** What about the “increase in tumor growth inhibition over gemcitabine alone” value ([3]; Calu-6, combination with gemcitabine) of the same compound?
**A.** The value was “up to a six-fold increase”.

**Q.** And the anti-tumor activity ([3]; Calu-6, dosed alone and in combination with gemcitabine 60 mg/kg ip, compound iv +24 hours, Q3Dx4)?
**A.** The anti-tumor activity was “excellent dose dependent anti-tumor activity”.

**Q.** With `COc1cccc(OCCCN)c1-c1cc(Nc2cnc(C#N)cn2)n[nH]1` [Example 5, 5-(5-(2-(3-Aminopropoxy)-6-methoxyphenyl)-1H-pyrazol-3-ylamino)pyrazine-2-carbonitrile methanesulfonic acid monohydrate] as the compound, how does the “% T/C” value [4] read?
**A.** Its value is 48%.

**Q.** And the “% T/C” value [5]?
**A.** Its value is 67%.

**Q.** And the “% Regression” value ([6]; SJCRH-30, RMS, comparator day 38, p-value <0.001)?
**A.** Its value is −78%.

**Q.** What about the “course of the regression upon withdrawal of the drug” value ([6]; SJCRH-30 aRMS model) of the same compound?
**A.** Its value is “immediately reversed”.

**Q.** What about the “tumor response during treatment” value ([6]; SJCRH-30 aRMS model) of the same compound?
**A.** The value was “complete regression”.

**Q.** And the “response of subsequent regrowth to further treatment” value ([6]; SJCRH-30 aRMS model, 10 mg/kg)?
**A.** Its value is “resistant to further treatment”.

**Q.** And the “Result of Treatment: Stable Disease (models)” value [7]?
**A.** The value was 1/4 Stable Disease.

**Q.** What about the “adult sarcoma models sensitive to single agent treatment (models)” value [8] of the same compound?
**A.** The value was 10/12.

**Q.** And the “adult sarcoma models sensitive to single agent treatment (percent)” value [8]?
**A.** Its value is 83%.

**Q.** What about the “% T/C” value [9] of the same compound?
**A.** The value was 94%.

**Q.** What about the “% T/C” value ([10]; comparator day 18, p-value 0.004) of the same compound?
**A.** The value was 18%.

**Q.** And the “% Regression” value ([10]; comparator day 36, p-value <0.001)?
**A.** Its value is −65%.

**Q.** What about the “% T/C” value [11] of the same compound?
**A.** Its value is 44%.

**Q.** And the “Result of Treatment: Progressive Disease (models)” value [12]?
**A.** The value was 7/7 Progressive.

**Q.** What about the “% T/C” value [13] of the same compound?
**A.** Its value is 6%.

**Q.** What about the “Result of Treatment: Complete Response (models)” value [14] of the same compound?
**A.** Its value is 1/3 Complete.

**Q.** And the “Result of Treatment: Stable Disease (models)” value [14]?
**A.** The value was “Response; 1/3”.

**Q.** What about the “% T/C” value [15] of the same compound?
**A.** The value was 292%.
